Data: ChEMBL document CHEMBL6153108, “Otitiglycomycins A and B: Glycolipids from the Strain Nocardia otitidiscavarum 20S-13 with Antiviral Activity against Zika Virus” (J Nat Prod, 2025)
Calls of active or inactive are those of the source. No cut-off for these calls is given here.

Experiments:
Vero C1008 = test: Cytotoxicity against african green monkey Vero E6 cells assessed as cell viability at 100 uM incubated for 48 hrs by MTS assay; format: toxicity, cell-based; settings: chlorocebus sabaeus, vero c1008, 48 h
[1] = Cytotoxicity against african green monkey Vero E6 cells assessed as cell viability incubated for 48 hrs by MTS assay; format: toxicity, cell-based, Vero C1008; settings: African green monkey (Chlorocebus sabaeus)
Zika virus [2] = test: Antiviral activity against ZIKV MR766NIID expressing GFP infected in african green monkey Vero E6 assessed as reduction in viral replication incubated for 24 hrs by flow cytometry assay; format: functional, organism-based; settings: for Activity: dose 0.3-100 µM
Zika virus [3] = test: Antiviral activity against ZIKV MR766NIID expressing GFP infected in african green monkey Vero E6 assessed as neutralization of viral infection at 25 uM compound preincubated with virus for 2 hrs followed by 0.7 uM compound addition and measured after 2 hrs by flow cytometry analysis relative to control; format: functional, organism-based; settings: time 4.0 hrs
Zika virus [4] = test: Antiviral activity against ZIKV MR766NIID expressing GFP infected in african green monkey Vero E6 assessed as reduction in viral replication measured after 24 hrs by flow cytometry assay; format: functional; parameters: scale not given: the % may be the effect or the level left
Zika virus [5] = test: Antiviral activity against ZIKV MR766NIID expressing GFP infected in african green monkey Vero E6 assessed as reduction in viral replication preincubated for 2 hrs and measured after 22 hrs by flow cytometry assay; format: functional, organism-based; settings: time 24.0 hrs
[6] = Selectivity index, ratio of IC50 for cytotoxicity against african green monkey Vero E6 cells to IC50 for ZIKV MR766NIID expressing GFP infected in african green monkey; format: toxicity, cell-based; settings: read-out: Ratio IC50
Zika virus [7] = test: Antiviral activity against ZIKV MR766NIID expressing GFP infected in african green monkey Vero E6 assessed as reduction in viral replication at 50 uM incubated for 24 hrs by flow cytometry assay relative to control; format: functional; parameters: scale not given: the % may be the effect or the level left
Zika virus [8] = test: Antiviral activity against ZIKV MR766NIID expressing GFP infected in african green monkey Vero E6 assessed as reduction in virus attachment to cell surface at 25 uM incubated for 1 hr by RT-qPCR analysis relative to control; format: functional; parameters: scale not given: the % may be the effect or the level left

Structure (SMILES)	Activity (Vero C1008)	IC50 at 48 h [1] [µM]	Activity (Zika virus [2])	Activity (Zika virus [3])	Activity (Zika virus [4]) [%]	Activity (Zika virus [5])	selectivity ratio [6]	IC50 (Zika virus [2]; Vero C1008, 24 h) [µM]	Activity (Zika virus [7]) [%]	Activity (Zika virus [8]) [%]
CCCCCCCCCCCCCCC(=O)O[C@H]1[C@@H](O[C@H](CO)C(=O)O)O[C@H](CO)[C@@H](O)[C@@H]1O	Non-toxic	> 100	inactive							
CCCCCCCCCCCCCCCCCC(=O)O[C@H]1[C@@H](O[C@H](CO)C(=O)O)O[C@H](CO)[C@@H](O)[C@@H]1OC(=O)C(C)C	Non-toxic	> 100	Dose-dependent-effect	Active	100	inactive	> 10	10.5	100	90
